The values that follow come from patent US9708293B2, “N-(pyridin-2-yl)pyrimidin-4-amine derivatives containing a sulfone group” (BAYER PHARMA AKTIENGESELLSCHAFT, priority 2012, dated 2017).

One assay has as its target T1, CDK9/CycT1 (Homo sapiens, UniProt P50750).
T1 construct: Recombinant full-length His-tagged human CDK9 and CycT1; His; purchased Invitrogen PV4131; host or cells: insect cells
The experiment in a line: CDK9/CycT1 high ATP kinase assay (Method 1b). It is filed as biochemical. Conditions: 2 mM ATP. The protocol: 1b. CDK9/CycT1 High ATP Kinase Assay
CDK9/CycT1-inhibitory activity of compounds of the present invention at a high ATP concentration after preincubation of enzyme and test compounds was quantified employing the CDK9/CycT1 TR-FRET assay as described in the following paragraphs.
Recombinant full-length His-tagged human CDK9 and CycT1, expressed in insect cells and purified by Ni-NTA affinity chromatography, were purchase from Invitrogen (Cat. No PV4131). As substrate for the kinase reaction biotinylated peptide biotin-Ttds-YISPLKSPYKISEG (C-terminus in amid form) was used which can be purchased e.g. form the company JERINI peptide technologies (Berlin, Germany). For the assay 50 n1 of a 100 fold concentrated solution of the test compound in DMSO was pipetted into a black low volume 384 well microtiter plate (Greiner Bio-One, Frickenhausen, Germany), 2 μl of a solution of CDK9/CycT1 in aqueous assay buffer [50 mM Tris/HCl pH 8.0, 10 mM MgCl2, 1.0 mM dithiothreitol, 0.1 mM sodium ortho-vanadate, 0.01% (v/v) Nonidet-P40 (Sigma)] were added and the mixture was incubated for 15 min at 22° C. to allow pre-binding of the test compounds to the enzyme before the start of the kinase reaction. Then the kinase reaction was started by the addition of 3 μl of a solution of adenosine-tri-phosphate (ATP, 3.3 mM=>final conc. in the 5 μl assay volume is 2 mM) and substrate (1.67 μM=>final conc. in the 5 μl assay volume is 1 μM) in assay buffer and the resulting mixture was incubated for a reaction time of […] at 22° C. The concentration of CDK9/CycT1 was adjusted depending of the activity of the enzyme lot and was chosen appropriate to have the assay in the linear range, typical concentrations were in the range of 0.5 μg/mL. The reaction was stopped by the addition of 5 μl of a solution of TR-FRET detection reagents (0.2 μM streptavidine-XL665 [Cisbio Bioassays, Codolet, France] and 1 nM anti-RB(pSer807/pSer811)-antibody from BD Pharmingen [#558389] and 1.2 nM LANCE EU-W1024 labeled anti-mouse IgG antibody [Perkin-Elmer, product no. AD0077]) in an aqueous EDTA-solution (100 mM EDTA, 0.2% (w/v) bovine serum albumin in 100 mM HEPES/NaOH pH 7.0).
The resulting mixture was incubated 1 h at 22° C. to allow the formation of complex between the phosphorylated biotinylated peptide and the detection reagents. Subsequently the amount of phosphorylated substrate was evaluated by measurement of the resonance energy transfer from the Eu-chelate to the streptavidine-XL. Therefore, the fluorescence emissions at 620 nm and 665 nm after excitation at 350 nm was measured in a HTRF reader, e.g. a Rubystar (BMG Labtechnologies, Offenburg, Germany) or a Viewlux (Perkin-Elmer). The ratio of the emissions at 665 nm and at […] was taken as the measure for the amount of phosphorylated substrate. […]

The test system of the next assay is HeLa cells. The experiment in a line: Proliferation assay, HeLa. It is filed as cell-based. Conditions: Homo sapiens, 96 h, 4 days, crystal violet, read-out: Inhibition of HeLa cell proliferation IC50. The protocol:
(§1) Cultivated tumour cells (HeLa, human cervical tumour cells, ATCC CCL-2; NCI-H460, human non-small cell lung carcinoma cells, ATCC HTB-177; A2780, human ovarian carcinoma cells, ECACC #93112519; DU 145, hormone-independent human prostate carcinoma cells, ATCC HTB-81; HeLa-MaTu-ADR, multidrug-resistant human cervical carcinoma cells, EPO-GmbH Berlin; Caco-2, human colorectal carcinoma cells, ATCC HTB-37; B16F10, mouse melanoma cells, ATCC CRL-6475) were plated at a density of 5,000 cells/well (DU145, HeLa-MaTu-ADR), 3,000 cells/well (NCI-H460, HeLa), 2,500 cells/well (A2780), 1,500 cells/well (Caco-2), or 1,000 cells/well (B16F10) in a 96-well multititer plate in 200 μL of their respective growth medium supplemented 10% fetal calf serum. After 24 hours, the cells of one plate (zero-point plate) were stained with crystal violet (see below), while the medium of the other plates was replaced by fresh culture medium (200 μl), to which the test substances were added in various concentrations (0 μM, as well as in the range of 0.001-10 μM; the final concentration of the solvent dimethyl sulfoxide was 0.5%). The cells were incubated for 4 days in the presence of test substances. Cell proliferation was determined by staining the cells with crystal violet: the cells were fixed by adding 20 μl/measuring point of an 11% glutaric aldehyde solution for 15 minutes at room temperature. After three washing cycles of the fixed cells with water, the plates were dried at room temperature. The cells were stained by adding 100 μl/measuring point of a 0.1% crystal violet solution (pH 3.0). After three washing cycles of the stained cells with water, the plates were dried at room temperature. The dye was dissolved by adding 100 μl/measuring point of a 10% acetic acid solution. The extinction was determined by photometry at a wavelength of 595 nm. The change of cell number, in percent, was calculated by normalization of the measured values to the extinction values of the zero-point plate (=0%) and the extinction of the untreated (0 μm) cells (=100%). […]

The next assay relates to HeLa-MaTu-ADR cells. The experiment in a line: Proliferation assay, HeLa-MaTu-ADR. It is filed as cell-based. Conditions: Homo sapiens, 96 h; 4 days, crystal violet; read-out: Inhibition of HeLa-MaTu-ADR cell proliferation IC50. The protocol: as §1
The subject of a further assay is NCI-H460 cells. The experiment in a line: Proliferation assay, NCI-H460. Conditions: Homo sapiens, NCI-H460, 96 h; 4 days, crystal violet; read-out: Inhibition of NCI-H460 cell proliferation IC50. Format: cell-based. Here is the method:
as §1

A further assay concerns DU145 cells. As to the kind of experiment: Proliferation assay, DU145. It is filed as cell-based. Conditions: Homo sapiens, DU-145, 96 h; 4 days, crystal violet; read-out: Inhibition of DU145 cell proliferation IC50. Here is the method: as §1
A further assay concerns B16F10 cells. The experiment in a line: Proliferation assay, B16F10. Format: cell-based. Conditions: Mus musculus, B16-F10, 96 h; 4 days, crystal violet; read-out: Inhibition of B16F10 cell proliferation IC50. The protocol:
as §1

SMILES strings stand for the structures.

T1 sequence (P50750 whole entry): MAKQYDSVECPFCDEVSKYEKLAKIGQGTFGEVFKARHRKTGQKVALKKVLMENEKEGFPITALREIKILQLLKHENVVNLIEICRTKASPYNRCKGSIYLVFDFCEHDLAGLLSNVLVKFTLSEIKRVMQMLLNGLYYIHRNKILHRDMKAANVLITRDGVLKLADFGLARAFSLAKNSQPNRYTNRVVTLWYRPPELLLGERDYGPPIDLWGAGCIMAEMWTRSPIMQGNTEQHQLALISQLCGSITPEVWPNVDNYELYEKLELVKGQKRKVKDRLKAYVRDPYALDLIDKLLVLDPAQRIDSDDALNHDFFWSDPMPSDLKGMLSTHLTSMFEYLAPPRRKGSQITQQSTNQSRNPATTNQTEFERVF
T1 sequence (O60563 whole entry partner): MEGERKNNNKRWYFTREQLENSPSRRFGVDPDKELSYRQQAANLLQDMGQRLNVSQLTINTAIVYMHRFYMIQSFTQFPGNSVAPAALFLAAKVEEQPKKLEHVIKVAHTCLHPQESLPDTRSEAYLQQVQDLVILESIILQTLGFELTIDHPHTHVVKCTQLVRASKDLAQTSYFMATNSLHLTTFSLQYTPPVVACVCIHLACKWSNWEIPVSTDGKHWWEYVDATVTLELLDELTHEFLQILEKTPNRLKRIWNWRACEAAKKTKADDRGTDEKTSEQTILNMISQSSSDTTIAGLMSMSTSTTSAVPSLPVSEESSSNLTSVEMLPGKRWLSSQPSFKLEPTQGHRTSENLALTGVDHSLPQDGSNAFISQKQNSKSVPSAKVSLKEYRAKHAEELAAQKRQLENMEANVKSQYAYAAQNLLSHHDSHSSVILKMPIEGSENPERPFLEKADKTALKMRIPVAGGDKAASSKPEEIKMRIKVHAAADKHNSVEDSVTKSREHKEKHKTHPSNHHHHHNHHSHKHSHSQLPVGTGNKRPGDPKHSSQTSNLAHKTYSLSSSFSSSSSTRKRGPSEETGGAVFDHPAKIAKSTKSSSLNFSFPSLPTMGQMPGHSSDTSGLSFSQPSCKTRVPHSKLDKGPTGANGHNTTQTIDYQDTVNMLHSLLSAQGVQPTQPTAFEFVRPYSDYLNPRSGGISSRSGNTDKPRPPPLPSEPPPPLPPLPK

Take `COc1cc(F)ccc1-c1cc(Nc2cc(CS(C)(=O)=O)cc(F)n2)ncn1` [Example 4, 6-(4-Fluoro-2-methoxyphenyl)-N-{6-fluoro-4-[(methylsulfonyl)methyl]pyridin-2-yl}pyrimidin-4-amine]: the IC50 on CDK9/CycT1 was 11 nM.

Turning to `COc1cc(F)ccc1-c1cc(Nc2cc(CS(C)(=O)=O)ccn2)ncn1` [Example 1, 6-(4-Fluoro-2-methoxyphenyl)-N-{4-[(methylsulfonyl)methyl]pyridin-2-yl}pyrimidin-4-amine], the IC50 against CDK9/CycT1 turned out to be 16 nM; with HeLa cells, 101 nM; with HeLa-MaTu-ADR cells, 212 nM; with NCI-H460 cells it was 317 nM; in the assay on DU145 cells, 195 nM; with B16F10 cells it was 289 nM.

On to `COc1cc(F)ccc1-c1cc(Nc2cc(CS(C)(=O)=O)cc(C)n2)ncn1` [Example 2, 6-(4-Fluoro-2-methoxyphenyl)-N-{6-methyl-4-[(methylsulfonyl)methyl]pyridin-2-yl}pyrimidin-4-amine], for which the IC50 at CDK9/CycT1 was found to be 2 nM; with HeLa cells, 76 nM; with HeLa-MaTu-ADR cells, 54 nM; in the assay with NCI-H460 cells, 95 nM; in the assay on DU145 cells, 75 nM; in the assay with B16F10 cells, 101 nM.

In the case of `COc1cc(F)ccc1-c1cc(Nc2cc(CS(C)(=O)=O)cc(C(F)(F)F)n2)ncn1` [Example 3, 6-(4-Fluoro-2-methoxyphenyl)-N-{4-[(methylsulfonyl)methyl]-6-(trifluoromethyl)pyridin-2-yl}pyrimidin-4-amine], the IC50 on CDK9/CycT1 came out at 2 nM; with HeLa cells, 24 nM; in the assay on HeLa-MaTu-ADR cells, 33 nM; in the assay with NCI-H460 cells, 55 nM; with DU145 cells, 34 nM; with B16F10 cells, 34 nM.
